Assay results reported in patent publication US20230295293A1, “BINDING MOLECULES AGAINST FRa” (AstraZeneca AB, priority 2022, published 2023).

Tests used:
Type in all cases: in vivo, mouse
[1] = test system: OVO857_CIS ("OVO0875") ovarian PDX; experiment: OVO857_CIS ovarian PDX model; settings: for Tumor growth inhibition (TGI %): OVO857 PDX; for Mean Tumor volume (mm^3) ± SEM / TGI (%): OVO875 ovarian cancer PDX
Description: (§1) In-house in vivo patient derived xenograft (PDX) efficacy studies were conducted using 2 different ovarian PDX models, OVO857_CIS (“OVO0875”) and CTG3226. 6-8-week-old female NSG (NOD-SCID IL2Rgamma^null) as seed mice were implanted subcutaneously with tumor tissue fragments. When sufficient seed animals reached 1000-1500 mm^3, tumors were harvested, and fragments were implanted into study animals. When tumor volume reached approximately 150-250 mm^3, mice were randomly assigned into different groups (n=3 mice per group). One group received no treatment. Four groups were administered intravenously 10, 5, 2.5 and 1.25 mg/kg AB1370049-SG3932 DAR8 respectively. Two groups were administered intravenously 5 and 2.5 mg/kg FRα-DM4 ADC (“biosimilar to mirvetuximab soravtansine”, with a DAR of about 3) respectively. All dosed animals received drug intravenously as a single dose at 10 ml/kg, on day 39 for OVO857_CIS and day 46 for CTG3226 PDX models.
(§2) Tumor volumes were measured by digital caliper and the volumes of tumors were calculated using the following formula: tumor volume=[length (mm)×width (mm)^2×0.52, where the length and width are the longest and shortest diameters of the tumor, respectively. Body weights were measured twice weekly to assess tolerability of the treatments.
(§3) The growth of tumors in each experimental group was expressed as the mean tumor volume (mm^3)±SEM of the number of animals used.
(§4) Tumor growth inhibition (TGI) was calculated by comparing each treatment group to the untreated control group. Percentage inhibition was calculated from the group means using the following formula: […]
(§5) Where C is mean tumor volume of untreated control group and T is mean tumor volume of treated groups.

[2] = test system: FRα-DM4-resistant OVCAR-3 tumors; experiment: FRα-DM4-resistant OVCAR3 xenograft model; settings: FRα-DM4 resistant OVCAR3 tumors re-implanted in new host mice; two doses (Q2W) of 5 mg/kg
Description: To develop the OVCAR3 xenograft model, 10×10^6 cells/mouse in 50% Matrigel were inoculated subcutaneously into female 6-8-week-old female NSG (NOD-SCID IL2Rgamma^null). When tumour volume reached within the range of 200-600 mm^3, mice were dosed intravenously with FRα-DM4 ADC (“biosimilar to mirvetuximab soravtansine”, with a DAR of about 3) at 5 mg/kg, once every 2 weeks (Q2W) continuously until tumours relapsed and began to grow in size again. Among mice relapsed after 8 rounds of Q2W dosing, 4 mice were selected and re-challenged with AB1370049-SG3932 DAR8 intravenously at 5 mg/kg Q2W, receiving 2 rounds of AB1370049-SG3932 DAR8 treatment.
Separately, relapsed tumor from an additional mouse was excised and re-implanted subcutaneously into female 6-8-week-old female NSG (NOD-SCID IL2Rgamma^null) mice. […]
as §2, with “(mm)× width” for “(mm)×width”
as §3

CTG3226 ovarian PDX = CTG3226 ovarian PDX model; settings: for Tumor growth inhibition (TGI %): CTG3226 PDX; for Mean Tumor volume (mm^3) ± SEM / TGI (%): CTG3226 ovarian cancer PDX
Description: as §1, §2, §3, §4, §5

## FRα-DM4 ADC: "biosimilar to mirvetuximab soravtansine", with a DAR of about 3
[1]; single iv dose 2.5 mg/kg
  Tumor growth inhibition (TGI %): 2%
  Mean Tumor volume (mm^3) ± SEM: 1882.00 ± 199.43 mm^3
  TGI (%): 2.40%
[1]; single iv dose 5 mg/kg
  Tumor growth inhibition (TGI %): 24%
  Mean Tumor volume (mm^3) ± SEM: 1457.15 ± 250.01 mm^3
  TGI (%): 24.43%
[2]
  TGI (%): still resistant to the treatment
CTG3226 ovarian PDX; single iv dose 2.5 mg/kg
  Tumor growth inhibition (TGI %): no activity
  Mean Tumor volume (mm^3) ± SEM: 1127.58 ± 481.10 mm^3
  TGI (%): −16.66%
CTG3226 ovarian PDX; single iv dose 5 mg/kg
  Tumor growth inhibition (TGI %): 76.5%
  Mean Tumor volume (mm^3) ± SEM: 226.86 ± 46.03 mm^3
  TGI (%): 76.53%
